“Also recorded” adds a separate entry of the source.
Experiments:
[1] = biological target: T1, FXR (Homo sapiens, UniProt Q96RI1); assay: FXR luciferase reporter assay, transient transfection with a synthetic FXR responsive reporter plasmid in HEK293 cells; assay type: cell-based
T1 construct: expressed in transfected cells; host or cells: HEK293 (transient)
T1 sequence (Q96RI1 1-486): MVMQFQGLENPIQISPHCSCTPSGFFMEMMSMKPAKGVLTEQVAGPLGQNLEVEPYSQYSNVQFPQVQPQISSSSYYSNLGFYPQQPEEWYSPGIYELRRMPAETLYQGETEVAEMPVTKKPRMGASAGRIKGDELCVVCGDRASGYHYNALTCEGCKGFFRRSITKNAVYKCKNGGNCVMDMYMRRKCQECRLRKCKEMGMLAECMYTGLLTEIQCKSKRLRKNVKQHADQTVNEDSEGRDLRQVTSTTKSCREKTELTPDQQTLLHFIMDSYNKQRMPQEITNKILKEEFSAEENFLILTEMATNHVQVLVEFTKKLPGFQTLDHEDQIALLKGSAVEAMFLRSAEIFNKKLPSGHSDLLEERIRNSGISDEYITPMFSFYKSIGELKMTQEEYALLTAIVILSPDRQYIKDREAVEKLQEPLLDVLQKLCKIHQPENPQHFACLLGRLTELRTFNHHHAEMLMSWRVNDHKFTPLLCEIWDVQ
T1 sequence (P19793 1-462 partner): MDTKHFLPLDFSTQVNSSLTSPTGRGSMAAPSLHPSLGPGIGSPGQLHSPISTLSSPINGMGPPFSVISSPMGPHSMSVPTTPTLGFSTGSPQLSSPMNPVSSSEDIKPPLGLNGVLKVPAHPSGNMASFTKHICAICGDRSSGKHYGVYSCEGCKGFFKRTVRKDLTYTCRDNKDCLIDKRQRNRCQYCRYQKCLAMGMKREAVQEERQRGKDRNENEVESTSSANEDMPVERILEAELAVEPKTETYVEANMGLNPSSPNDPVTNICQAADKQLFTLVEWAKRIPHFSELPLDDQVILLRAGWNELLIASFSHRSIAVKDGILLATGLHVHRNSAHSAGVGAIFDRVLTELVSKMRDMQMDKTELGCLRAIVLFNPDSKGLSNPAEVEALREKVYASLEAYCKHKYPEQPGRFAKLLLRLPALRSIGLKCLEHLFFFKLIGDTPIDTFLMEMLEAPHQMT
Protocol: Effect of berberine derivatives and γ-aminobutyric acid derivative on FXR inhibition was initially assessed using transient transfections with a synthetic FXR responsive reporter plasmid. HEK 293 Cells were treated with vehicle alone or 100 μM CDCA with or without compounds, as indicated. Results are luciferase expression normalized using the β-gal internal control.
TGR5-reporting activity was evaluated by luciferase assay. Treatments were performed in quadruplicate and normalized with β-galactosidase. HEK293 cells were transfected with FXR and RXRα, and FXRE-containing luciferase construct. Cells were treated with 10 μM of indicated compounds; luciferase was measured and normalized with β-galactosidase.
To evaluate TGR5 activity of compounds, cells were transfected 100 ng pCRE-luc reporter along with pCMV-galactosidase (10 ng) as an internal control for normalization of transfection efficiency. Plasmids were complexed with […] of Fugene 6 reagent (Promega, Madison, Wis.) in OptiMEM (Invitrogen, Carlsbad, Calif.) and cells were transfected for 18 h. The following day, cells were treated with vehicle and appropriate ligand as indicated. Luciferase and β-galactosidase activities were assayed 6 h later using Luciferase Assay System (Promega) and Galacto-Star (Applied Biosystems, Foster City, Calif.) reagents, respectively, and a MLX luminometer (Dynex Technologies, Chantilly, Va.). To evaluate the FXR activity of compounds, HEK293 cells were transfected with 25 ng of farnesoid X receptor expression plasmid (pCMX-hFXR), 25 ng of retinoid X receptor expression plasmid (pCMXhRXR), 100 ng of reporter plasmid (pEcREx6-TK-Luc), and 10 ng of pCMV-b-galactosidase as an internal control in each well, using Fugene 6 reagent. Approximately 18 h after transfection, cells were incubated for 12 h with different concentrations of each.

[2] = biological target: T2, FXR (Homo sapiens, UniProt Q96RI1); assay: GeneBLAzer cell-based FXR transactivation assay (FXR-UAS-bla HEK 293T cells)
T2 construct: the Gal4 DBD was fused to the LBD of FXR in this assay
T2 sequence (Q96RI1 262-486 limits assumed): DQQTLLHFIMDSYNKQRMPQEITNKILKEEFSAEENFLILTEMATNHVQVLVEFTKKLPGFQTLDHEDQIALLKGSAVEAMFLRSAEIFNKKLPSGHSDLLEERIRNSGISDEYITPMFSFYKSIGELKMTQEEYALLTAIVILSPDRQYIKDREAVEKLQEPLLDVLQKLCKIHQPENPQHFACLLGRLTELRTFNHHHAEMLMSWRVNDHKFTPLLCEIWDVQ
Protocol: To investigate the cellular activities of the novel berberine derivatives, we used a GeneBLAzer FXR cell-based assay, which detects the levels of a β-lactamase reporter controlled by a promoter containing the binding site of the DNA binding domain (DBD) of the GAL4 transcription factor; the Gal4 DBD was fused to the LBD of FXR in this assay. In typical test for agonists, DMSO (vehicle and negative control), 10 μM GW4064 (positive control), and titrations of GW4064, LCA or the 24 newly synthesized novel berberien derivatives analogs were mixed with GeneBLAzer FXR-UAS-bla HEK 293T cells. Reporter assays were performed after a 16 h incubation. […] For the experiments to evaluate the antagonistic activity, titrations of compounds were tested in the presence of 400 nM GW4064. […]
FXR transactivation assay was performed using GeneBLAzer FXR-UAS-bla HEK 293T cells (Invitrogen) as previously described with minor modifications. […] Plates were then incubated in the dark for 90 min at room temperature before measuring the fluorescent emissions at 460 nm and 535 nm (using excitation at 400 nm) with an Envision plate reader with bottom read capacity. […] The % Activation was calculated using Eq. 2.
[formula] […] The % Inhibition was calculated using Eq. 3. […]

FXR activity of compound alone (agonism) ([1]; compound alone, compared with GW4064) | FXR antagonist activity in cell-based FXR transactivation assay [2] | melting point [°C] | SMILES | Inhibition of FXR activation by CDCA (FXR antagonism) ([1]; CDCA 100 μM, compounds 10 μM)
no effect on FXR activity | – | – | O=C(O)CCCN1C(=O)c2ccccc2C1=O [DY419] | strongly inhibited FXR activation; also recorded: activated FXR receptor to exert FXR antagonistic biological function
– | identified as FXR antagonists | 228.7 | COc1ccc2cc3[n+](cc2c1NCc1cccc(B(O)O)c1)CCc1cc2c(cc1-3)OCO2 [DY323, Berberine-Phenylboronic Hybrid] | –
– | identified as FXR antagonists | 198.4 | COc1ccc2cc3[n+](cc2c1NCCc1ccc(O)c(O)c1)CCc1cc2c(cc1-3)OCO2 [DY322, Berberine-Dopamine Hybrid] | –

Reference: patent US10703761B2, “Bile acid receptor modulators and methods of use thereof” (City of Hope, priority 2016, dated 2020)
